One series concerns M. tuberculosis (H37Rv). Briefly: microbe, parasite or virus in culture. It is filed as cell-based, Mycobacterium tuberculosis.
Series [1] is described as follows: physchem. It is filed as physicochemical.
The format of series [2] is in vitro ADME, mouse.
Series [3] is classed as in vitro ADME, mouse. This is another data set of the same source.
The nature of series [4]: physchem. Particulars: pH 7.4.
The test system of the next series is HepG2 cells. Description: HepG2 cytotoxicity. Particulars: Homo sapiens.
The mark [5] stands for this setting: Mycobacterium tuberculosis, H37RV, read-out: H37Rv MIC A.
Where [6] appears, read: Mycobacterium tuberculosis, H37RV, read-out: H37Rv MIC B.
Setting [7] is: Mycobacterium tuberculosis, H37RV, read-out: Wk2_7H9/DPPC/ casitone/ Tyloxapol MIC.
Setting [8] is: Mycobacterium tuberculosis, H37RV, read-out: Wk2_ 7H9/DPPC/ cholesterol/BSA/ Tyloxapol MIC.
[9] abbreviates: Mycobacterium tuberculosis, H37RV, read-out: Wk2_7H9/glucose/ BSA/Tyloxapol MIC.
[10] abbreviates: Mycobacterium tuberculosis, H37RV, read-out: Wk2_7H9/glucose/ casitone/ Tyloxapol MIC.
Where [11] appears, read: pH 7.4, aqueous buffer, kinetic from dmso stock.
Setting [12] is: HepG2, read-out: HepG2 inhibitory concentration (IC50).

As a reminder, the chromatographic logD is a lipophilicity value derived from retention on a column. Higher therefore signals higher lipophilicity.

Values after ≈ are worked out from the molar mass of the structure shown. Read-outs that look alike come from different tables or passages of the source.

Excerpt for HepG2 cells: Assays to establish HepG2 cytotoxicity, in vitro microsomal/hepatocyte metabolic stability, aqueous kinetic solubility, and in vivo pharmacokinetic profiles were all performed as previously described.[15],[35]−[37]

As to `COC(=O)c1c(C)noc1NC(=O)c1c(F)c(F)c(F)c(F)c1F` [Compound 22, COC(=O)c1c(noc1NC(=O)c1c(c(c(c(c1F)F)F)F)F)C], the MIC with M. tuberculosis (H37Rv) (setting [5]) is 0.97 µM (≈ 0.34 µg/mL); in the series on M. tuberculosis (H37Rv) (setting [6]), 3.1 µM (≈ 1.09 µg/mL); with M. tuberculosis (H37Rv) (setting [7]) it was 1 µM (≈ 0.35 µg/mL); with M. tuberculosis (H37Rv) (setting [8]), 3.1 µM (≈ 1.09 µg/mL); in the series on M. tuberculosis (H37Rv) (setting [9]), 2.3 µM (≈ 0.805 µg/mL); in the series on M. tuberculosis (H37Rv) (setting [10]) it was 0.8 µM (≈ 0.28 µg/mL). For the same compound, the solubility kinetic in “physchem [1]” (setting [11]) and in the series “physchem [1]” (read-out: Kin. Sol) was 242 µM (≈ 84.7 µg/mL) in each case. Besides, the “Microsomal Cli” value in series [2] (CD1, mouse) is given as 3.8 mL/min/g. In addition, in series [2] (mouse, microsomes), the “Mouse micro Cl” value was determined as 3.8 mLmin/g. Besides, the “Hepatocyte Cli” value in series [3] (mouse) is 46 mL/min/g. Moreover, the “Mouse Heps Cl” value in series [3] (mouse, hepatocytes) is 45.6 mLmin/g. The chromatographic logD in the series “physchem [4]” was 1.5. Moreover, the IC50 in the series on HepG2 cells (setting [12]) is above 100 µM.
In the case of `COC(=O)c1nc(C)oc1NC(=O)c1c(F)c(F)c(F)c(F)c1F` [Compound 23, COC(=O)c1nc(oc1NC(=O)c1c(c(c(c(c1F)F)F)F)F)C], the MIC is 0.6 µM (≈ 0.21 µg/mL) with M. tuberculosis (H37Rv) (setting [5]); 1.2 µM (≈ 0.42 µg/mL) with M. tuberculosis (H37Rv) (setting [6]); 0.6 µM (≈ 0.21 µg/mL) with M. tuberculosis (H37Rv) (setting [7]); 1.2 µM (≈ 0.42 µg/mL) in the series with M. tuberculosis (H37Rv) (setting [8]); 1.2 µM (≈ 0.42 µg/mL) in the series with M. tuberculosis (H37Rv) (setting [9]); 0.6 µM (≈ 0.21 µg/mL) in the series on M. tuberculosis (H37Rv) (setting [10]). For the same compound, the solubility kinetic in “physchem [1]” (setting [11]) and in “physchem [1]” (read-out: Kin. Sol) was 237 µM (≈ 83 µg/mL) in each case. Moreover, the “Microsomal Cli” value in series [2] (CD1, mouse) is below 0.5 mL/min/g. Further, the “Mouse micro Cl” value in series [2] (mouse, microsomes) is listed as below 0.5 mLmin/g. Moreover, the “Hepatocyte Cli” value in series [3] (mouse) is listed as 8.1 mL/min/g. Besides, in series [3] (mouse, hepatocytes), the “Mouse Heps Cl” value is listed as 8.1 mLmin/g. For the same compound, in “physchem [4]”, the chromatographic logD was found to be 1.4. Further, the IC50 in the series with HepG2 cells (setting [12]) is above 100 µM.
As for `CCOC(=O)c1nc(C)oc1NC(=O)c1c(F)c(F)c(F)c(F)c1F` [Compound 24, CCOC(=O)c1nc(oc1NC(=O)c1c(c(c(c(c1F)F)F)F)F)C], the MIC was 0.27 µM (≈ 0.0983 µg/mL) in the series on M. tuberculosis (H37Rv) (setting [5]); 0.6 µM (≈ 0.219 µg/mL) with M. tuberculosis (H37Rv) (setting [6]); 0.271 µM (≈ 0.0987 µg/mL) in the series on M. tuberculosis (H37Rv) (setting [7]); 0.6 µM (≈ 0.219 µg/mL) in the series with M. tuberculosis (H37Rv) (setting [8]); 0.434 µM (≈ 0.158 µg/mL) with M. tuberculosis (H37Rv) (setting [9]); 0.168 µM (≈ 0.0612 µg/mL) with M. tuberculosis (H37Rv) (setting [10]). For the same compound, in the series with M. tuberculosis (H37Rv) (read-out: H37Rv MIC A), the MIC came to 0.3 µM (≈ 0.109 µg/mL). The solubility kinetic in “physchem [1]” (setting [11]) and in “physchem [1]” (read-out: Kin. Sol) was 204 µM (≈ 74.3 µg/mL) in each case. In series [2] (CD1, mouse), the “Microsomal Cli” value was below 0.5 mL/min/g. The “Hepatocyte Cli” value in series [3] (mouse) was 12 mL/min/g. In addition, the chromatographic logD in “physchem [4]” was 1.8. Besides, the IC50 with HepG2 cells (setting [12]) is above 100 µM.
For the compound `CCOC(=O)c1nc(C)oc1NC(=O)c1cc(F)c(F)c(F)c1F` [Compound 25, CCOC(=O)c1nc(oc1NC(=O)c1cc(c(c(c1F)F)F)F)C], the MIC with M. tuberculosis (H37Rv) (setting [5]) was 0.3 µM (≈ 0.104 µg/mL); in the series with M. tuberculosis (H37Rv) (setting [6]), 0.6 µM (≈ 0.208 µg/mL); in the series with M. tuberculosis (H37Rv) (setting [7]), 0.3 µM (≈ 0.104 µg/mL); in the series with M. tuberculosis (H37Rv) (setting [8]), 0.6 µM (≈ 0.208 µg/mL); in the series on M. tuberculosis (H37Rv) (setting [9]), 0.6 µM (≈ 0.208 µg/mL); in the series with M. tuberculosis (H37Rv) (setting [10]) it was 0.3 µM (≈ 0.104 µg/mL). Also, the solubility kinetic in “physchem [1]” (setting [11]) and in the series “physchem [1]” (read-out: Kin. Sol) was 136 µM (≈ 47.1 µg/mL) throughout. In series [2] (CD1, mouse), the “Microsomal Cli” value came out at 5.1 mL/min/g. For the same compound, in series [2] (mouse, microsomes), the “Mouse micro Cl” value was 5.1 mLmin/g. In addition, in series [3] (mouse), the “Hepatocyte Cli” value is reported as 17 mL/min/g. Also, the “Mouse Heps Cl” value in series [3] (mouse, hepatocytes) is reported as 17 mLmin/g. For the same compound, the chromatographic logD in the series “physchem [4]” came to 2.5. The IC50 in the series with HepG2 cells (setting [12]) was above 100 µM.
As for `CCOC(=O)c1nc(C)oc1NC(=O)c1c(F)cc(F)c(F)c1F` [Compound 27, CCOC(=O)c1nc(oc1NC(=O)c1c(cc(c(c1F)F)F)F)C], the MIC in the series on M. tuberculosis (H37Rv) (setting [5]) was 3.1 µM (≈ 1.07 µg/mL); in the series on M. tuberculosis (H37Rv) (setting [6]), 4.7 µM (≈ 1.63 µg/mL); in the series with M. tuberculosis (H37Rv) (setting [7]), 3.1 µM (≈ 1.07 µg/mL); with M. tuberculosis (H37Rv) (setting [8]), 4.7 µM (≈ 1.63 µg/mL); in the series with M. tuberculosis (H37Rv) (setting [9]) it was 4.7 µM (≈ 1.63 µg/mL); in the series on M. tuberculosis (H37Rv) (setting [10]), 2.3 µM (≈ 0.796 µg/mL). In addition, the solubility kinetic in the series “physchem [1]” (setting [11]) and in “physchem [1]” (read-out: Kin. Sol) was 232 µM (≈ 80.3 µg/mL) each time. In addition, in series [2] (CD1, mouse), the “Microsomal Cli” value was determined as 0.8 mL/min/g. Moreover, the “Mouse micro Cl” value in series [2] (mouse, microsomes) came to 0.80 mLmin/g. Besides, the “Hepatocyte Cli” value in series [3] (mouse) is listed as 3.4 mL/min/g. Besides, in series [3] (mouse, hepatocytes), the “Mouse Heps Cl” value came to 3.4 mLmin/g. The same compound came in with a chromatographic logD in the series “physchem [4]” of 1.9. For the same compound, the IC50 with HepG2 cells (setting [12]) is above 100 µM.
Regarding `CCOC(=O)c1nc(C)oc1NC(=O)c1c(F)c(F)cc(F)c1F` [Compound 28, CCOC(=O)c1nc(oc1NC(=O)c1c(c(cc(c1F)F)F)F)C], the MIC in the series with M. tuberculosis (H37Rv) (setting [5]), in the series on M. tuberculosis (H37Rv) (setting [6]), in the series with M. tuberculosis (H37Rv) (setting [7]), in the series with M. tuberculosis (H37Rv) (setting [8]), in the series on M. tuberculosis (H37Rv) (setting [9]) and with M. tuberculosis (H37Rv) (setting [10]) was above 50 µM throughout. For the same compound, the solubility kinetic in “physchem [1]” (kinetic solubility in water, read-out: Kin. Sol) worked out at 163 µM (≈ 56.4 µg/mL); in “physchem [1]” (pH 7.4, aqueous buffer, kinetic from dmso stock, pH7.4, read-out: Kinetic Solubility pH7.4), 163 µM (≈ 56.4 µg/mL). Also, the “Mouse micro Cl” value in series [2] (intrinsic clearance (Cli), CD1 mouse liver microsomes, Tables 1-4) is below 0.5 mLmin/g. In series [2] (supplement data table), the “Microsomal Cli” value is below 0.5 mL/min/g. The “Mouse Heps Cl” value in series [3] (intrinsic clearance (Cli), mouse hepatocytes, Tables 1-4) is recorded as 0.88 mLmin/g. In addition, the “Hepatocyte Cli” value in series [3] (supplement data table) was 0.9 mL/min/g. Further, the chromatographic logD in the series “physchem [4]” is 1.7. Further, the IC50 in the series with HepG2 cells (HepG2, read-out: Hs-HEPG IC50) is above 100 µM.

(Values after publication PMC11915372, “Identification of a Series Containing a Pentafluorophenyl Moiety That Targets Pks13 to Inhibit Growth of Mycobacterium tuberculosis” (ACS Infectious Diseases, 2025).)
